Measurements published in patent publication US9066960B2, “Use of the effective fraction of alkaloids from mulberry twig in preparing hypoglycemic agents” (INSTITUTE OF MATARIA MEDICA, CHINESE ACADEMY OF MEDICAL …, priority 2006, dated 2015).

System: α-glucosidase
Assay: α-glucosidase inhibitor activity
Assay type: biochemical

OCC1NCC(O)C(O)C1O (stereo not shown) [1-deoxynojirimycin]
Activity among the alkaloids of the effective fraction: the activity is also the highest
